Where two headings read alike, the source gives them in different places. Marks after values point to notes of the source that are not given here.
Experiments:
[1] = set-up: method as in PMID 21275772; conditions: T = 25 °C, I = 0.2 M (KCl), cited from earlier work; for pKa (additional): group named in the cell
A431 cells = assay: MTT viability assay, A431; type: cell-based; conditions: Homo sapiens, A-431, 72 h, MTT 72 h
From the text: (§1) MDCK II canine kidney cells, A431 epidermoid carcinoma cells, the human uterine sarcoma cell lines MES-SA and the doxorubicin selected MES-SA-Dx5 were obtained from ATCC (MDCK II: No. CRL-2936™, A431: No. CRL-1555™, MES-SA: No. CRL-1976™, MES-SA/Dx5: No. CRL-1977™). ABCB1 was expressed in A431 and MES-SA cells using lentiviral transduction. The human cervix carcinoma cell line KB-3-1 and the vinblastine selected KB-v1were kind gifts from Dr. Michael M. Gottesman, National Institutes of Health. The phenotype of the resistant cells was verified using cytotoxicity assays. MDCK-B1 and MDCK-MM were established by the Sleeping Beauty transposon-based gene delivery system. OVCAR-8 and NCI-ADRres cells (obtained from the Division of Cancer Treatment and Diagnosis (DCTD) Tumor Repository (National Cancer Institute, Frederick, MD, USA)) were cultivated in RPMI-1640 (Sigma Aldrich, Budapest, Hungary), and other cell lines were cultivated in Dulbecco’s Modified Eagle Medium (DMEM, Sigma Aldrich, Budapest, Hungary), supplemented with 10% fetal bovine serum, 5 mM glutamine, and 50 unit/mL penicillin and streptomycin (Life Technologies, Carlsbad, CA, USA). All cell lines were cultivated at 37 °C, 5% CO2.
(§2) MTT viability assays were performed as described earlier with minor modifications. Briefly, cells were seeded into 96-well tissue culture plates (Sarstedt, Newton, NC, USA/Orange, Braine-l’Alleud, Belgium) at a density of 5000 cells/well and allowed to attach overnight. Test compounds were added to achieve the required final concentration in a final volume of 100 µL per well. After an incubation period of 72 h, the supernatant was removed and fresh medium containing the MTT reagent (0.083 mg/mL) was added. Incubation with MTT at 37 °C was terminated after 1 h by removing the supernatant and lysing the cells with 100 µL DMSO per well. Viability of the cells was measured spectrophotometrically based on the absorbance values at 540 nm using either a Perkin Elmer Victor X3 or an EnSpire microplate reader. Data were background corrected by subtraction of the signal obtained from unstained cell lysates and normalized to untreated cells. Curves were fitted by Prism software (GraphPad Software Inc., San Diego, CA, USA) using the sigmoidal dose-response model (comparing variable and fixed slopes). […] Significance was calculated using unpaired t-tests; results are given as *: p ≤ 0.05, **: p ≤ 0.01, ***: p ≤ 0.001, ****: p ≤ 0.0001.

[2] = test system: MES-SA, MES-SA/Dx5 and MES-SA/B1 cells; assay: TXRF intracellular copper levels; type: cell-based, human; conditions: for Intracellular copper levels: 1 µM ligand with 5 µM CuCl2, 4 h (Figure 4B)
Experimental: Cells were seeded to 6-well plates in a density of 1.5 Mio cells/well and allowed to attach overnight. Following a washing step with phosphate buffered saline (PBS), cells were incubated in serum free DMEM. For the iron-level measurements, cells were preloaded with 25 µM holo-transferrin for 4 h and, after a washing step with serum free DMEM, cells were incubated with 5 µM of each ligand for 8 h. For the detection of copper levels, cells were treated with 1 µM of the ligands in the presence of 5 µM CuCl2 for 4 h. Following incubation, cells were harvested upon trypsination, washed twice with PBS, counted and the resulting pellets were digested in 20 μL of 30% H2O2, 80 μL of 65% HNO3. 10 μL of 15 µg/mL Ga(NO3)3 (in nitric acid) was added as an internal standard upon digestion for 24 h at room temperature. From the resulting solutions, 2 μL were pipetted on the quartz reflectors used for total-reflection X-ray fluorescence (TXRF) analysis. For the determination of the intracellular Cu content, the TXRF method was used as previously reported. Briefly, all determinations were performed on an Atomika 8030C TXRF spectrometer (Atomika Instruments GmbH, Oberschleissheim, Germany). The stock solution of 1000 mg/L Ga was purchased from Merck (Darmstadt, Germany). The Kα line used for determination of Fe and Cu were at 6.403 and 8.047 keV. […] Significance was calculated using unpaired t-tests; results are given as *: p ≤ 0.05, **: p ≤ 0.01, ***: p ≤ 0.001, ****: p ≤ 0.0001.
Figure 4 Effect of the compounds on intracellular metal levels. (A) Iron levels of MES-SA (open columns) and MES-SA/B1 cells in absence (dark red squared columns) and presence of Pgp inhibitor Tariquidar (bright red squared columns). Cells were loaded with 25 µM holo-transferrin (4 h), followed by an incubation (8 h) without (ctr) or with 5 µM of ligands Q-1, Q-2, Q-3, and Q-4. […] (B) Cellular copper levels measured following a 4 h co-administration of compounds Q-1, Q-2, Q-3, and Q-4 (1 µM) and CuCl2 (5 µM) in MES-SA (open columns), MES-SA/Dx5 (filled columns) and MES-SA-B1 (squared columns) cells. Significance is given as *: p ≤ 0.05, **: p ≤ 0.01, ***: p ≤ 0.001.

NCI-ADRres cells = assay: MTT viability assay, NCI-ADRres; type: cell-based; conditions: for IC50: Homo sapiens, NCI/ADR-RES, 72 h, MTT 72 h; for SR NCI-ADRres: IC50 OVCAR-8 vs. NCI-ADRres
From the text: as §1, §2

MES-SA/B1 cells = assay: MTT viability assay, MES-SA/B1; type: cell-based, human; conditions: for IC50: Homo sapiens, MES-SA, 72 h, MTT 72 h
From the text: as §1, §2

KB-3-1 cells = assay: MTT viability assay, KB-3-1; type: cell-based; conditions: Homo sapiens, KB 3-1, 72 h, MTT 72 h
From the text: as §1, §2

MES-SA cells = assay: MTT viability assay, MES-SA; type: cell-based, human; conditions: for IC50: Homo sapiens, MES-SA; for Effect of co-administration of CuCl2 on toxicity: parental MES-SA, increasing concentrations of CuCl2, MTT 72 h (Figure 2I-L)
From the text: as §1, §2

MDCK-B1 cells = assay: MTT viability assay, MDCK-B1 (wild-type Pgp); type: cell-based, canine; conditions: for IC50: Canis lupus familiaris, 72 h, MTT 72 h
From the text: as §1, §2

MDCK-MM cells = assay: MTT viability assay, MDCK-MM (non-functional Pgp); type: cell-based, canine; conditions: for IC50: Canis lupus familiaris, 72 h, MTT 72 h; for SR MDCK-MM: IC50 MDCK vs. MDCK-MM
From the text: as §1, §2

[3] = presence of 1 µM Tariquidar (values in brackets)
[4] = presence of 1 µM Tariquidar (brackets)
[5] = IC50 MES-SA vs. MES-SA/B1, absence of Tariquidar
[6] = IC50 MES-SA vs. MES-SA/B1, presence of 1 µM Tariquidar (brackets)
[7] = MTT 72 h, absence of Tariquidar, read-out: IC50 MES-SA
[8] = Table 2, value outside brackets, read-out: MES-SA (toxicity, Table 2)
[9] = IC50 MDCK vs. MDCK-B1, absence of Tariquidar
[10] = IC50 MDCK vs. MDCK-B1, presence of 1 µM Tariquidar (brackets)

IC50 (A431 cells; absence of Tariquidar) [µM]	IC50 (A431 cells; [3]) [µM]	IC50 (KB-3-1 cells; absence of Tariquidar) [µM]	IC50 (KB-3-1 cells; [3]) [µM]	SMILES	pKa (NquinoliniumH+) [1]	pKa (OH) [1]	IC50 (NCI-ADRres cells; absence of Tariquidar) [µM]	IC50 (NCI-ADRres cells; [3]) [µM]	SR NCI-ADRres (NCI-ADRres cells; absence of Tariquidar)	IC50 (MES-SA/B1 cells; absence of Tariquidar) [µM]	IC50 (MES-SA/B1 cells; [3]) [µM]	SR MES-SA/B1 (MES-SA/B1 cells; [5])	SR MES-SA/B1 (MES-SA/B1 cells; [6])	IC50 (MES-SA cells; [7]) [µM]	IC50 (MES-SA cells; [8]) [µM]	Effect of co-administration of CuCl2 on toxicity (MES-SA cells)	IC50 (MDCK-B1 cells; absence of Tariquidar) [µM]	IC50 (MDCK-B1 cells; [3]) [µM]	SR MDCK-B1 (MDCK-B1 cells; [9])	SR MDCK-B1 (MDCK-B1 cells; [10])	further results
3.31 ± 1.61	3.18	9.55 ± 2.55	11.7	Oc1c(CN2CCOCC2)ccc2cccnc12 [Compound Q-2, 7-(morpho-lino-methyl)quinolin-8-ol]	2.59 ^a	10.37 ^a	2.84 ± 0.81	5.41	1.11	3.12 ± 0.28	3.6	2.23	1.29	6.97 ± 1.75	6.97 ± 1.75	increased the toxicity	12 ± 7.84	12.1	0.76	0.92	pKa (additional) [1]: 6.25 ^a (NmorpholiniumH^+); Intracellular copper levels [2]: significantly increased copper levels; SR NCI-ADRres (NCI-ADRres cells; [4]): 0.61; IC50 (MDCK-MM cells; absence of Tariquidar): 9.74 ± 4.04 µM; IC50 (MDCK-MM cells; [3]): 9.01 µM; SR MDCK-MM (MDCK-MM cells; absence of Tariquidar): 0.82; SR MDCK-MM (MDCK-MM cells; [4]): 1.23
3.91 ± 0.83	4.09	6.19 ± 0.12	6.69	Oc1c(CN2CCCCC2)ccc2cccnc12 [Compound Q-3, 7-(piperidin-1-ylmethyl)quinolin-8-ol]	2.69 ^a	6.99 ^a	0.68 ± 0.09	4.22	4.60	0.83 ± 0.02	1.5	4.95	1.99	4.11 ± 1.2	4.11 ± 1.2	selective increase in sensitivity	3.22 ± 1.02	12.4	2.36	0.82	pKa (additional) [1]: >11.5 ^a; Increase in copper uptake ([2]; 1 µM ligand with 5 µM CuCl2, 4 h): 10 fold; SR NCI-ADRres (NCI-ADRres cells; [4]): 0.88; IC50 (MDCK-MM cells; absence of Tariquidar): 6.67 ± 2 µM; IC50 (MDCK-MM cells; [3]): 8.45 µM; SR MDCK-MM (MDCK-MM cells; absence of Tariquidar): 1.14; SR MDCK-MM (MDCK-MM cells; [4]): 1.20
5.82 ± 1.15	4.54	1.75 ± 0.62	2.65	Oc1c(CNCc2ccccc2F)cc(Cl)c2cccnc12 [Compound Q-4, 5-chloro-7-((2-fluorobenzylamino)methyl)quinolin-8-ol]	< 2 ^a	5.16 ^a	0.14 ± 0.07	1.15	7.84	0.3 ± 0.06	1.03	9.24	2.16	2.75 ± 0.46	2.75 ± 0.46	selective increase in sensitivity	0.89 ± 0.35	6.95	5.13	0.85	pKa (additional) [1]: 8.54 ^a (NbenzylamineH2^+); Intracellular copper levels [2]: significantly increased copper levels; IC50 (MDCK-MM cells; absence of Tariquidar): 5.23 ± 2.11 µM; IC50 (MDCK-MM cells; [3]): 6.27 µM; SR MDCK-MM (MDCK-MM cells; absence of Tariquidar): 0.87; SR MDCK-MM (MDCK-MM cells; [4]): 0.94

SMILES	IC50 (A431 cells; absence of Tariquidar) [µM]	IC50 (A431 cells; [3]) [µM]	IC50 (KB-3-1 cells; absence of Tariquidar) [µM]	IC50 (KB-3-1 cells; [3]) [µM]	pKa (NquinoliniumH+) [1]	pKa (OH) [1]	IC50 (NCI-ADRres cells; absence of Tariquidar) [µM]	IC50 (NCI-ADRres cells; [3]) [µM]	SR NCI-ADRres (NCI-ADRres cells; absence of Tariquidar)	IC50 (MES-SA/B1 cells; absence of Tariquidar) [µM]	IC50 (MES-SA/B1 cells; [3]) [µM]	SR MES-SA/B1 (MES-SA/B1 cells; [5])	SR MES-SA/B1 (MES-SA/B1 cells; [6])	IC50 (MES-SA cells; [7]) [µM]	IC50 (MES-SA cells; [8]) [µM]	Effect of co-administration of CuCl2 on toxicity (MES-SA cells)	IC50 (MDCK-B1 cells; absence of Tariquidar) [µM]	IC50 (MDCK-B1 cells; [3]) [µM]	SR MDCK-B1 (MDCK-B1 cells; [9])	SR MDCK-B1 (MDCK-B1 cells; [10])	further results
Oc1cccc2cccnc12 [Compound Q-1, 8-Hydroxyquinoline]	2.35 ± 0.92	2.9	8.59 ± 2.92	10.9	4.99 ^a	9.51 ^a	1.84 ± 0.3	2.65	1.88	3.68 ± 0.95	4.92	1.14	1.03	4.19 ± 0.74	4.19 ± 0.74	increased the toxicity	4.58 ± 1.75	15.2	0.71	0.20	Intracellular copper levels [2]: significantly increased copper levels; SR NCI-ADRres (NCI-ADRres cells; [4]): 1.29; IC50 (MDCK-MM cells; absence of Tariquidar): 3.34 ± 0.6 µM; IC50 (MDCK-MM cells; [3]): 3.59 µM; SR MDCK-MM (MDCK-MM cells; absence of Tariquidar): 0.97; SR MDCK-MM (MDCK-MM cells; [4]): 0.86
